From PMC13483160, “Reorganization of Innate Immune Cell Lipid Profiles by Bioinspired Meroterpenoids to Limit Inflammation” (Advanced Science, 2026)

Target: T1, 5-lipoxygenase (ALOX5) (Homo sapiens, UniProt P09917)
T1 sequence (P09917 1-674): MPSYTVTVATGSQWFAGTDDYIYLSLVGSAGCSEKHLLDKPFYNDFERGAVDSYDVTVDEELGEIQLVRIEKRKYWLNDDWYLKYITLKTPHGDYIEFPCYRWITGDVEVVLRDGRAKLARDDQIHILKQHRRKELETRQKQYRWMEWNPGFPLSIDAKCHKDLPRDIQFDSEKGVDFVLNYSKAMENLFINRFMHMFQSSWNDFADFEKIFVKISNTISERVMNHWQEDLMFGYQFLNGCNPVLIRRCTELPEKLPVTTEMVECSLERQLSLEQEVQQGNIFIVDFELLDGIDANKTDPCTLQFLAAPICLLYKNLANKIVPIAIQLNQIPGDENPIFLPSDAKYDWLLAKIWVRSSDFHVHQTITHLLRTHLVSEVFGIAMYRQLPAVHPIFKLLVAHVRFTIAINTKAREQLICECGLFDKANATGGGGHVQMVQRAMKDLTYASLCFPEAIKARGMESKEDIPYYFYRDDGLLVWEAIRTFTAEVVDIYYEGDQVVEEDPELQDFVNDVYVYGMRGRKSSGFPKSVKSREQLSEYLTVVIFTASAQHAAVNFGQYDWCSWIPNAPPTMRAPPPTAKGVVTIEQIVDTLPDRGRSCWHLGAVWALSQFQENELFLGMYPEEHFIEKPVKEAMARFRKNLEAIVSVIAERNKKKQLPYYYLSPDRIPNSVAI
Assay: enzyme kinetics of human recombinant ALOX5 at varying AA ([…])
Assay type: biochemical

CCCCC/C=C\C/C=C\C/C=C\C/C=C\CCCC(=O)O [AA/20:4, 5Z,8Z,11Z,14Z‐eicosatetraenoic acid]
enzyme kinetics of human recombinant ALOX5 at varying AA (3-300 μM): Lineweaver–Burk plot generated from activity data of human recombinant ALOX5
